Structures can show the parent of a compound that is named as a salt. A value given as a limit tells only on which side of the number the result lay.

Series [1] relates to C57BL/6J mice. Description: Plasma insulin level test during OGTT. It counts as in vivo. Particulars: each dose group of HMS5552 versus vehicle control group. As to the method:
(§1) There were 7 groups of mice, with 8 mice in each group. […] Oral glucose tolerance test (OGTT) was performed 1 hour after administration. The blood glucose level in mice was tested before administration (-60 min), before sugar administration (0 min), and at 15 min, 30 min, 60 min, and 120 min after sugar administration. In addition, 40 µl of blood was collected from the tail tip before sugar administration (0 min) and at 15 min after sugar administration to collect the plasma for an insulin level test.
(§2) All data was transferred into an Excel document. The blood glucose results were expressed in mg/dL and expressed as MEAN ± SEM. Differences between multiple groups were analyzed using Dunnett's method in one-way analysis of variance (ANOVA) or two-way analysis of variance (ANOVA) with Graphpad Prism 8 software for comparison, and the differences were considered statistically significant when the P value was less than 0.05.

The test system of series [2] is C57BL/6J mice. Kind of series: Oral glucose tolerance test (OGTT), glucose-lowering effect. It counts as in vivo. Particulars: versus vehicle control group. The protocol: as §1, §2
A short description of series [3]: Pharmacokinetic study in rats (IV and PO). Format: in vivo, SD male rats. Particulars: Sprague-Dawley, rat, plasma, 30 mg/kg; SD male rats, PO, analyte parent drug HMS5552.
Protocol: Each group was divided into 2 subgroups (intravenous bolus group (IV) and gavage group (PO)).
Whole blood samples (about 0.2 mL per time point) were collected at pre-dose (0), 0.083, 0.25, 0.5, 1, 2, 4, 8, 12, and 24 hours post-dose by jugular vein puncture. All the blood samples were immediately transferred into labeled pre-chilled commercial microcentrifuge tubes containing 4 µL of 0.5M K2-EDTA and 10 µL of cocktail stabilizer. Samples were placed on wet ice until centrifugation (within 30 min). Plasma samples were then prepared by centrifuging the blood samples at approximately 4 °C, 3200xg for 10 minutes. Supernatant plasma was pipetted, then quickly frozen over dry ice, and then kept at -60 °C or lower temperature until LC-MS/MS analysis.
The plasma concentrations were subjected to a non-compartmental pharmacokinetic analysis by using the WinNonlin™ software program (version 6.3).
Series [4] is described as follows: Dynamic vapour sorption (DVS) test. Particulars: relative humidity of less than or equal to 90%; listed as crystal form B of the hydrochloride. It counts as physicochemical.
Protocol: A certain amount of powder was taken and put into a sample pan, and hygroscopicity of the sample was evaluated with DVS according to the following instrument method:
Series [5] in a line: Preliminary solubility test in solvents at room temperature. It counts as physicochemical. Particulars: for Solubility (mg/mL): listed as crystal form B of the hydrochloride. The protocol: Table 10 Solubility range of the starting material sample at room temperature
The solubility range in the corresponding solvent was calculated based on the mass of the sample and the volume of the added solvent, as shown in Table 28. The data were used as a base to guide the selection of solvent in screening tests. Table 28 Preliminary solubility of crystal form A of the free state at room temperature
The solubility range in the corresponding solvent was calculated based on the mass of the sample and the volume of the added solvent, as shown in Table 35. The data were used as a base to guide the selection of solvent in the screening tests.

The nature of series [6]: High-temperature and high-humidity stability test of hydrochloride crystal form B. Format: physicochemical.

For `CC(C)C[C@@H](C(=O)Nc1ccn(C[C@@H](O)CO)n1)N1CC(Oc2ccccc2Cl)=CC1=O` [HMS5552, (S)-2-(4-(2-chlorophenoxy)-2-oxo-2,5-dihydro-1H-pyrrol-1-yl)-N-(1-((R)-2,3-dihydroxypropyl)-1H-pyrazol-3-yl)-4-methylpentanamide, reference compound], the “insulin levels at 0 min and 15 min” value in series [1] is reported as “slightly higher than those in the vehicle control group, without significant difference”. In series [2] (C57BL/6J mice, oral, 1 hour after administration, dose-response relationship), the “blood glucose level at 0 min (pre-glucose)” value is listed as “generally lower than that of the vehicle control group”. The “blood glucose values after glucose administration” value in series [2] (HMS5552-40mg/kg group, at 30 min, 60 min, and 120 min) is “significantly lower than that of the vehicle control group”. The bioavailability in series [3] was 51.2%.

For the molecule `CC(C)C[C@@H](C(=O)Nc1ccn(C[C@@H](O)COC(=O)c2cccnc2)n1)N1CC(Oc2ccccc2Cl)=CC1=O` [Hydrochloride crystal form B], the moisture-induced weight gain entry in series [4] is listed as “less than 0.7%”. Moreover, the “Solubility (mg/mL)” value in series [5] (1,4-Dioxane, room temperature) was “S<1.0 mg/mL”; in series [5] (DMAc, room temperature) it was “S>40.0 mg/mL”; in series [5] (DMSO, room temperature), “S>42.0 mg/mL”; in series [5] (H2O, room temperature), “S<1.0 mg/mL”; in series [5] (MTBE, room temperature), “S<1.0 mg/mL”; in series [5] (MeOH, room temperature (25±3 °C)), “S>36.0 mg/mL”. In addition, the “Solubility (mg/mL)” value in series [5] (NMP, room temperature) was “S>42.0 mg/mL”; in series [5] (Toluene, room temperature) it was “S<1.0 mg/mL”; in series [5] (n-Heptane, room temperature), “S<1.0 mg/mL”. For the same molecule, the solubility is < 1000 µg/mL in series [5] (2-methf, 25 °C, organic solvent or mixture, thermodynamic from solid, room temperature); < 1000 µg/mL in series [5] (acetone, 25 °C, organic solvent or mixture, thermodynamic from solid, room temperature); < 1100 µg/mL in series [5] (acn, 25 °C, organic solvent or mixture, thermodynamic from solid, room temperature); > 40000 µg/mL in series [5] (acn/h2o (1:1) v/v, room temperature); < 1100 µg/mL in series [5] (chcl3, 25 °C, organic solvent or mixture, thermodynamic from solid, CHCl3, room temperature); < 1000 µg/mL in series [5] (dcm, 25 °C, organic solvent or mixture, thermodynamic from solid, room temperature). Also, the solubility in series [5] (dmf/h2o (1:1) v/v, room temperature) was 22000 to 44000 µg/mL; in series [5] (etoac, 25 °C, organic solvent or mixture, thermodynamic from solid, room temperature), < 1000 µg/mL; in series [5] (etoh/h2o (1:1) v/v, room temperature), 22000 to 44000 µg/mL; in series [5] (ipa, 25 °C, organic solvent or mixture, thermodynamic from solid, room temperature), < 1100 µg/mL; in series [5] (ipa/h2o (1:1) v/v, room temperature), > 40000 µg/mL; in series [5] (ipac, 25 °C, organic solvent or mixture, thermodynamic from solid, room temperature), < 1000 µg/mL. In addition, the solubility is 11000 to 22000 µg/mL in series [5] (meoh/h2o (1:1) v/v, room temperature); < 1000 µg/mL in series [5] (mibk, 25 °C, organic solvent or mixture, thermodynamic from solid, room temperature); < 1100 µg/mL in series [5] (thf, 25 °C, organic solvent or mixture, thermodynamic from solid, room temperature); 20000 to 40000 µg/mL in series [5] (thf/h2o (1:1) v/v, room temperature). Moreover, the “Purity (Area%)” value in series [6] (25 °C/75%RH, Day 2) is reported as 99.72 Area%; in series [6] (25 °C/75%RH, Day 5), 99.56 Area%; in series [6] (25 °C/75%RH, Day 9) it was 99.64 Area%; in series [6] (40°C/75%RH, Day 2), 99.67 Area%; in series [6] (40°C/75%RH, Day 5), 99.38 Area%; in series [6] (40°C/75%RH, Day 9), 99.33 Area%. Besides, the “Purity (Area%)” value in series [6] (60°C, Day 2) was determined as 99.55 Area%; in series [6] (60°C, Day 5), 99.43 Area%; in series [6] (60°C, Day 9), 99.55 Area%; in series [6] (80°C, Day 2), 95.20 Area%; in series [6] (80°C, Day 5), 94.65 Area%; in series [6] (80°C, Day 9), 96.80 Area%. The “Purity (Area%)” value in series [6] (Starting point (table 25 °C/75%RH / 40°C/75%RH)) and in series [6] (Starting point (table 60°C / 80°C)) was 99.72 Area% in each case. The “stability under the high-temperature and high-humidity conditions” value in series [6] (compared with crystal form A of the free state) is “not as stable as crystal form A of the free state”.

What is called bioavailability is dose-corrected exposure relative to a reference, in per cent. What is called solubility is how much of the substance goes into solution per volume.

These data come from EP4682144A1, “SOLID FORM OF PYRROLIDONE DERIVATIVE AS GLUCOKINASE ACTIVATOR” (Hua Medicine (Shanghai) Ltd., priority 2023, dated 2024).
